Where “and” joins values, the source holds several entries; their conditions need not be identical. Equal entries are not always repeated.
Assay: xn = mol fraction of the nth substance listed
Conditions: Liquid, Bellows volumetry

C=C [ethene] + Cc1ccccc1
Conditions | mass density
325.3 K, 3200 kPa, x1 = 0.3067 | 729.1 kg/m3
325.3 K, 3400 kPa, x1 = 0.3067 | 730.3 kg/m3
325.3 K, 4100 kPa, x1 = 0.3067 | 731.4 kg/m3 and 730.8 kg/m3
325.3 K, 5500 kPa, x1 = 0.3067 | 733.1 kg/m3
325.3 K, 6900 kPa, x1 = 0.3067 | 734.9 kg/m3
325.3 K, 8500 kPa, x1 = 0.3067 | 737.2 kg/m3
325.3 K, 10200 kPa, x1 = 0.3067 | 738.9 kg/m3
325.3 K, 11600 kPa, x1 = 0.3067 | 740.7 kg/m3
325.3 K, 13400 kPa, x1 = 0.3067 | 743.1 kg/m3
326.2 K, 1270 kPa, x1 = 0.1194 | 779.8 kg/m3
326.2 K, 1340 kPa, x1 = 0.1194 | 781 kg/m3
326.2 K, 2020 kPa, x1 = 0.1194 | 781.6 kg/m3
326.2 K, 2570 kPa, x1 = 0.1194 | 782.2 kg/m3
326.2 K, 3390 kPa, x1 = 0.1194 | 783.5 kg/m3
326.2 K, 4760 kPa, x1 = 0.1194 | 784.7 kg/m3
326.2 K, 5790 kPa, x1 = 0.1194 | 785.4 kg/m3
326.2 K, 7090 kPa, x1 = 0.1194 | 787.2 kg/m3
326.2 K, 10310 kPa, x1 = 0.1194 | 790.4 kg/m3
326.2 K, 13590 kPa, x1 = 0.1194 | 793.6 kg/m3
348.7 K, 1490 kPa, x1 = 0.1194 | 759.4 kg/m3
348.7 K, 1560 kPa, x1 = 0.1194 | 759.4 kg/m3
348.7 K, 1970 kPa, x1 = 0.1194 | 760 kg/m3
348.7 K, 2380 kPa, x1 = 0.1194 | 760.5 kg/m3
348.7 K, 2860 kPa, x1 = 0.1194 | 761.7 kg/m3
348.7 K, 3400 kPa, x1 = 0.1194 | 762.3 kg/m3
348.7 K, 4090 kPa, x1 = 0.1194 | 763.5 kg/m3
348.7 K, 5150 kPa, x1 = 0.1194 | 764.7 kg/m3
348.7 K, 6420 kPa, x1 = 0.1194 | 765.8 kg/m3
348.7 K, 10040 kPa, x1 = 0.1194 | 770 kg/m3
348.7 K, 13810 kPa, x1 = 0.1194 | 774.9 kg/m3
348.7 K, 16900 kPa, x1 = 0.1194 | 777.9 kg/m3
348.7 K, 21130 kPa, x1 = 0.1194 | 782.2 kg/m3
348.7 K, 23670 kPa, x1 = 0.1194 | 785.4 kg/m3
348.7 K, 27850 kPa, x1 = 0.1194 | 789.1 kg/m3
348.7 K, 30800 kPa, x1 = 0.1194 | 792.3 kg/m3
348.7 K, 32790 kPa, x1 = 0.1194 | 793.6 kg/m3
351.6 K, 4100 kPa, x1 = 0.3067 | 706.4 kg/m3
351.6 K, 4800 kPa, x1 = 0.3067 | 707.5 kg/m3
351.6 K, 5500 kPa, x1 = 0.3067 | 708.6 kg/m3
351.6 K, 5600 kPa, x1 = 0.3067 | 708.6 kg/m3
351.6 K, 6200 kPa, x1 = 0.3067 | 709.7 kg/m3
351.6 K, 6900 kPa, x1 = 0.3067 | 710.7 kg/m3
351.6 K, 8600 kPa, x1 = 0.3067 | 713.5 kg/m3
351.6 K, 10400 kPa, x1 = 0.3067 | 716.2 kg/m3
351.6 K, 13700 kPa, x1 = 0.3067 | 721.2 kg/m3
351.6 K, 17000 kPa, x1 = 0.3067 | 725.7 kg/m3
351.6 K, 20300 kPa, x1 = 0.3067 | 730.3 kg/m3
351.6 K, 20700 kPa, x1 = 0.3067 | 730.8 kg/m3
351.6 K, 27400 kPa, x1 = 0.3067 | 738.9 kg/m3
351.6 K, 30700 kPa, x1 = 0.3067 | 742.5 kg/m3
373.8 K, 4800 kPa, x1 = 0.3067 | 677.2 kg/m3
373.8 K, 4900 kPa, x1 = 0.3067 | 678.1 kg/m3
373.8 K, 5500 kPa, x1 = 0.3067 | 679.6 kg/m3
373.8 K, 6200 kPa, x1 = 0.3067 | 680.6 kg/m3
373.8 K, 6900 kPa, x1 = 0.3067 | 682.1 kg/m3
373.8 K, 8600 kPa, x1 = 0.3067 | 685.1 kg/m3
373.8 K, 10300 kPa, x1 = 0.3067 | 688.2 kg/m3
373.8 K, 16700 kPa, x1 = 0.3067 | 698.5 kg/m3
373.8 K, 17400 kPa, x1 = 0.3067 | 699.5 kg/m3
373.8 K, 24000 kPa, x1 = 0.3067 | 709.1 kg/m3
373.8 K, 30800 kPa, x1 = 0.3067 | 718.4 kg/m3
373.8 K, 36900 kPa, x1 = 0.3067 | 725.7 kg/m3
373.8 K, 37700 kPa, x1 = 0.3067 | 726.8 kg/m3
373.8 K, 44200 kPa, x1 = 0.3067 | 734.3 kg/m3
373.8 K, 51200 kPa, x1 = 0.3067 | 741.9 kg/m3
375.1 K, 1860 kPa, x1 = 0.1194 | 732.3 kg/m3
375.1 K, 2200 kPa, x1 = 0.1194 | 733.4 kg/m3
375.1 K, 2880 kPa, x1 = 0.1194 | 734.5 kg/m3
375.1 K, 3430 kPa, x1 = 0.1194 | 735 kg/m3
375.1 K, 4460 kPa, x1 = 0.1194 | 736.7 kg/m3
375.1 K, 5830 kPa, x1 = 0.1194 | 738.3 kg/m3
375.1 K, 6720 kPa, x1 = 0.1194 | 740 kg/m3
375.1 K, 7330 kPa, x1 = 0.1194 | 740.6 kg/m3
375.1 K, 10280 kPa, x1 = 0.1194 | 745 kg/m3
375.1 K, 13770 kPa, x1 = 0.1194 | 749.6 kg/m3
375.1 K, 16990 kPa, x1 = 0.1194 | 753.6 kg/m3
375.1 K, 20680 kPa, x1 = 0.1194 | 758.2 kg/m3
375.1 K, 23900 kPa, x1 = 0.1194 | 761.7 kg/m3
375.1 K, 27390 kPa, x1 = 0.1194 | 766.4 kg/m3
375.1 K, 30540 kPa, x1 = 0.1194 | 769.4 kg/m3
375.1 K, 34240 kPa, x1 = 0.1194 | 773.7 kg/m3
375.1 K, 37600 kPa, x1 = 0.1194 | 777.3 kg/m3
375.1 K, 41300 kPa, x1 = 0.1194 | 781 kg/m3
375.1 K, 44240 kPa, x1 = 0.1194 | 783.5 kg/m3
375.1 K, 47940 kPa, x1 = 0.1194 | 787.2 kg/m3
421 K, 6400 kPa, x1 = 0.3067 | 620.7 kg/m3
421 K, 6900 kPa, x1 = 0.3067 | 622.8 kg/m3
421 K, 8600 kPa, x1 = 0.3067 | 628.3 kg/m3
421 K, 10500 kPa, x1 = 0.3067 | 633.8 kg/m3
421 K, 12400 kPa, x1 = 0.3067 | 638.2 kg/m3
421 K, 13800 kPa, x1 = 0.3067 | 643 kg/m3
421 K, 17300 kPa, x1 = 0.3067 | 652 kg/m3
421 K, 20700 kPa, x1 = 0.3067 | 659.9 kg/m3
421 K, 24300 kPa, x1 = 0.3067 | 667 kg/m3
421 K, 30700 kPa, x1 = 0.3067 | 678.1 kg/m3

From the NIST ThermoML archive (doi:10.1016/j.fluid.2017.06.022)
